Data: ChEMBL document CHEMBL1156900, “Synthesis and anti-influenza virus activity of dihydrofuran-fused perhydrophenanthrenes with a benzyloxy-type side-chain” (2010)
Activity calls are given as the source filed them. No cut-off for these calls is given here.

These compounds were tested on H3N2 subtype (assay: Antiviral activity against influenza A virus A/Aichi/2/68 (H3N2) infected in MDCK cells at 10 uM by plaque titration assay relative to control). Settings: not given.
Type: functional, A/Aichi/2/1968(H3N2)

Structure (SMILES)	Activity
N#C[C@]12CCC3(OCCO3)C3=CO[C@H](Cc4cc(-c5ccccc5)ccc41)[C@@H]32	70%
N#C[C@]12CCC3(OCCO3)C3=CO[C@H](Cc4cc(OCc5ccccc5)ccc41)[C@@H]32	30%
N#C[C@]12CCC3(OCCO3)C3=CO[C@H](Cc4cc(-c5c(F)cc(F)cc5F)ccc41)[C@@H]32	70%
N#C[C@]12CCC3(OCCO3)C3=CO[C@H](Cc4cc(OCc5cc(F)cc(F)c5)ccc41)[C@@H]32	30%

Same assay, conditions: A/Aichi/2/1968(H3N2)

Structure (SMILES)	Activity
N#C[C@]12CCC3(OCCO3)C3=CO[C@H](Cc4cc(OCc5ccccn5)ccc41)[C@@H]32	Active
N#C[C@]12CCC3(OCCO3)C3=CO[C@H](Cc4cc(OS(=O)(=O)C(F)(F)F)ccc41)[C@@H]32	inactive
N#C[C@]12CCC3(OCCO3)C3=CO[C@H](Cc4cc(OCc5ccncc5)ccc41)[C@@H]32	Active
N#C[C@]12CCC3(OCCO3)C3=CO[C@H](Cc4cc(OCc5cccnc5)ccc41)[C@@H]32	Active
N#C[C@]12CCC3(OCCO3)C3=CO[C@H](Cc4cc(OC(F)(F)F)ccc41)[C@@H]32	Active
N#C[C@]12CCC3(OCCO3)C3=CO[C@H](Cc4cc(OCc5ccc(COc6ccc7c(c6)C[C@H]6OC=C8[C@H]6[C@@]7(C#N)CCC86OCCO6)cc5)ccc41)[C@@H]32	Active
